How the values were obtained:
barnyardgrass [1] = assay: Test A pre-/postemergence herbicide test; type: in vivo, Echinochloa crus-galli
Summary of the method: (§1)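 Directed soil spray to seeded pots (preemergence) or spray onto one- to two-leaf seedlings 2–10 cm tall (postemergence); loam/sand substrate throughout. Evaluated visually after about 10 days against untreated plants, 0 = no effect, 100 = complete control.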

giant foxtail = assay: Test A pre-/postemergence herbicide test; type: in vivo, Setaria faberii
Summary of the method: as §1

sedge, umbrella = assay: Test C flooded paddy test; type: in vivo, Cyperus difformis; settings: Flood
Summary of the method: (§2)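 2-leaf stage; flood 3 cm over soil; compound into paddy water; depth held; greenhouse 13–15 d; visual % control vs untreated (0 = none, 100 = complete); "-" = not tested.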

ducksalad = assay: Test C flooded paddy test; type: in vivo, Heteranthera limosa; settings: Flood
Summary of the method: as §2

corn = assay: Test A pre-/postemergence herbicide test; type: in vivo, Zea mays
Summary of the method: as §1

crabgrass, large = assay: Test A pre-/postemergence herbicide test; type: in vivo, Digitaria sanguinalis
Summary of the method: as §1

morningglory = assay: Test A pre-/postemergence herbicide test; type: in vivo, Ipomoea spp.
Summary of the method: as §1

velvetleaf = assay: Test A pre-/postemergence herbicide test; type: in vivo, Abutilon theophrasti
Summary of the method: as §1

barnyardgrass [2] = assay: Test C flooded paddy test; type: in vivo, Echinochloa crus-galli; settings: Flood
Summary of the method: as §2

wheat = assay: Test A pre-/postemergence herbicide test; type: in vivo, Triticum aestivum
Summary of the method: as §1

rice = assay: Test C flooded paddy test; type: in vivo, Oryza sativa; settings: Flood
Summary of the method: as §2

pigweed = assay: Test A pre-/postemergence herbicide test; type: in vivo, Amaranthus retroflexus
Summary of the method: as §1

[3] = Postemergence, 1000 g ai/ha, 0 to 100 scale (0 no effect, 100 complete control)
[4] = Preemergence, 1000 g ai/ha, visual rating on 0 to 100 scale (0 no effect, 100 complete control), approx. 10 days
[5] = 62 g ai/ha, scale of 0 to 100 where 0 is no effect and 100 is complete control, 13 to 15 days
[6] = Postemergence, 125 g ai/ha, 0 to 100 scale, 0 no effect, 100 complete control
[7] = Postemergence, 500 g ai/ha, 0 to 100 scale (0 no effect, 100 complete control)
[8] = Preemergence, 125 g ai/ha, visual rating on 0 to 100 scale (0 no effect, 100 complete control)
[9] = preemergence, 500 g ai/ha, 0 to 100 scale (0 no effect, 100 complete control)
[10] = preemergence, 500 g ai/ha, 0 to 100 scale
[11] = 31 g ai/ha, scale of 0 to 100 where 0 is no effect and 100 is complete control, 13 to 15 days
[12] = 125 g ai/ha, scale of 0 to 100 where 0 is no effect and 100 is complete control, 13 to 15 days

O=C1NCC(c2ccc(F)c(F)c2)C1C(=O)Nc1ccc(F)cc1F (racemic) [Compound 23]
0: Plant response rating, Sedge, Umbrella (sedge, umbrella; [5]) | Plant response rating, Corn (corn; [3]) | Plant response rating, Corn (corn; [4]) | Plant response rating, Morningglory (morningglory; [3]) | Plant response rating, Morningglory (morningglory; [4]) | Plant response rating, Barnyardgrass (barnyardgrass [2]; [5]) | Plant response rating, Barnyardgrass (barnyardgrass [2]; 250 g ai/ha, scale 0 to 100) | Plant response rating, Wheat (wheat; [3]) | Plant response rating, Wheat (wheat; [4]) | Plant response rating, Rice (rice; [5]) | Plant response rating, Rice (rice; 250 g ai/ha, scale 0 to 100) | Plant response rating, Pigweed (pigweed; [3])
100: Plant response rating, Ducksalad (ducksalad; 250 g ai/ha, scale 0 to 100)
40: Plant response rating, Velvetleaf (velvetleaf; [3]) | Plant response rating, Velvetleaf (velvetleaf; [4])
30: Plant response rating, Sedge, Umbrella (sedge, umbrella; 250 g ai/ha, scale 0 to 100) | Plant response rating, Ducksalad (ducksalad; [5])
90: Plant response rating, Barnyardgrass (barnyardgrass [1]; [3]) | Plant response rating, Barnyardgrass (barnyardgrass [1]; [4]) | Plant response rating, Foxtail, Giant (giant foxtail; [4]) | Plant response rating, Crabgrass, Large (crabgrass, large; [4])
80: Plant response rating, Foxtail, Giant (giant foxtail; [3]) | Plant response rating, Crabgrass, Large (crabgrass, large; [3])

O=C1NCC(c2ccc(Cl)c(Cl)c2)C1C(=O)Nc1ccccc1C(F)(F)F (racemic) [Compound 26]
60: Plant response rating, Crabgrass, Large (crabgrass, large; [3])
90: Plant response rating, Foxtail, Giant (giant foxtail; [4]) | Plant response rating, Crabgrass, Large (crabgrass, large; [4])
80: Plant response rating, Ducksalad (ducksalad; 250 g ai/ha, scale 0 to 100)
70: Plant response rating, Barnyardgrass (barnyardgrass [1]; [3]) | Plant response rating, Barnyardgrass (barnyardgrass [1]; [4]) | Plant response rating, Foxtail, Giant (giant foxtail; [3])
0: Plant response rating, Sedge, Umbrella (sedge, umbrella; [5]) | Plant response rating, Sedge, Umbrella (sedge, umbrella; 250 g ai/ha, scale 0 to 100) | Plant response rating, Ducksalad (ducksalad; [5]) | Plant response rating, Corn (corn; [3]) | Plant response rating, Corn (corn; [4]) | Plant response rating, Morningglory (morningglory; [3]) | Plant response rating, Morningglory (morningglory; [4]) | Plant response rating, Velvetleaf (velvetleaf; [3]) | Plant response rating, Velvetleaf (velvetleaf; [4]) | Plant response rating, Barnyardgrass (barnyardgrass [2]; [5]) | Plant response rating, Barnyardgrass (barnyardgrass [2]; 250 g ai/ha, scale 0 to 100) | Plant response rating, Wheat (wheat; [3]) | Plant response rating, Wheat (wheat; [4]) | Plant response rating, Rice (rice; [5]) | Plant response rating, Rice (rice; 250 g ai/ha, scale 0 to 100) | Plant response rating, Pigweed (pigweed; [3]) | Plant response rating, Pigweed (pigweed; [4])

O=C1NCC(c2ccc(Cl)c(Cl)c2)C1C(=O)Nc1cccc(F)c1 (racemic) [Compound 27]
30: Plant response rating, Ducksalad (ducksalad; 250 g ai/ha, scale 0 to 100)
0: Plant response rating, Sedge, Umbrella (sedge, umbrella; [5]) | Plant response rating, Sedge, Umbrella (sedge, umbrella; 250 g ai/ha, scale 0 to 100) | Plant response rating, Ducksalad (ducksalad; [5]) | Plant response rating, Corn (corn; [3]) | Plant response rating, Corn (corn; [4]) | Plant response rating, Morningglory (morningglory; [3]) | Plant response rating, Morningglory (morningglory; [4]) | Plant response rating, Velvetleaf (velvetleaf; [3]) | Plant response rating, Velvetleaf (velvetleaf; [4]) | Plant response rating, Barnyardgrass (barnyardgrass [2]; [5]) | Plant response rating, Barnyardgrass (barnyardgrass [2]; 250 g ai/ha, scale 0 to 100) | Plant response rating, Wheat (wheat; [3]) | Plant response rating, Wheat (wheat; [4]) | Plant response rating, Rice (rice; [5]) | Plant response rating, Rice (rice; 250 g ai/ha, scale 0 to 100) | Plant response rating, Pigweed (pigweed; [3]) | Plant response rating, Pigweed (pigweed; [4])
70: Plant response rating, Barnyardgrass (barnyardgrass [1]; [3]) | Plant response rating, Barnyardgrass (barnyardgrass [1]; [4]) | Plant response rating, Crabgrass, Large (crabgrass, large; [3])
90: Plant response rating, Foxtail, Giant (giant foxtail; [4]) | Plant response rating, Crabgrass, Large (crabgrass, large; [4])
60: Plant response rating, Foxtail, Giant (giant foxtail; [3])

O=C1NCC(c2ccsc2)C1C(=O)Nc1ccccc1C(F)(F)F (racemic) [Compound 28]
85: Plant response rating, Ducksalad (ducksalad; 250 g ai/ha, scale 0 to 100)
80: Plant response rating, Crabgrass, Large (crabgrass, large; [10])
0: Plant response rating, Barnyardgrass (barnyardgrass [1]; [6]) | Plant response rating, Barnyardgrass (barnyardgrass [1]; [7]) | Barnyardgrass plant response rating (barnyardgrass [1]; [8]) | Plant response rating, Foxtail, Giant (giant foxtail; [6]) | Plant response rating, Foxtail, Giant (giant foxtail; [7]) | Foxtail, Giant plant response rating (giant foxtail; [8]) | Plant response rating, Sedge, Umbrella (sedge, umbrella; [11]) | Plant response rating, Sedge, Umbrella (sedge, umbrella; [5]) | Plant response rating, Sedge, Umbrella (sedge, umbrella; [12]) | Plant response rating, Sedge, Umbrella (sedge, umbrella; 250 g ai/ha, scale 0 to 100) | Plant response rating, Corn (corn; [6]) | Plant response rating, Corn (corn; [7]) | Corn plant response rating (corn; [8]) | Plant response rating, Corn (corn; [10]) | Plant response rating, Morningglory (morningglory; [6]) | Plant response rating, Morningglory (morningglory; [7]) | Morningglory plant response rating (morningglory; [8]) | Plant response rating, Morningglory (morningglory; [10]) | Plant response rating, Velvetleaf (velvetleaf; [7]) | Velvetleaf plant response rating (velvetleaf; [8]) | Plant response rating, Velvetleaf (velvetleaf; [10]) | Plant response rating, Barnyardgrass (barnyardgrass [2]; [11]) | Plant response rating, Barnyardgrass (barnyardgrass [2]; [5]) | Plant response rating, Barnyardgrass (barnyardgrass [2]; [12]) | Plant response rating, Barnyardgrass (barnyardgrass [2]; 250 g ai/ha, scale 0 to 100) | Plant response rating, Wheat (wheat; [6]) | Plant response rating, Wheat (wheat; [7]) | Wheat plant response rating (wheat; [8]) | Plant response rating, Wheat (wheat; [10]) | Plant response rating, Rice (rice; [11]) | Plant response rating, Rice (rice; [5]) | Plant response rating, Rice (rice; [12]) | Plant response rating, Rice (rice; 250 g ai/ha, scale 0 to 100) | Plant response rating, Pigweed (pigweed; [6]) | Plant response rating, Pigweed (pigweed; [7]) | Pigweed plant response rating (pigweed; [8]) | Plant response rating, Pigweed (pigweed; [10])
30: Plant response rating, Ducksalad (ducksalad; [5]) | Crabgrass, Large plant response rating (crabgrass, large; [8])
20: Plant response rating, Barnyardgrass (barnyardgrass [1]; [9]) | Plant response rating, Foxtail, Giant (giant foxtail; [10]) | Plant response rating, Ducksalad (ducksalad; [11]) | Plant response rating, Crabgrass, Large (crabgrass, large; [6])
40: Plant response rating, Ducksalad (ducksalad; [12]) | Plant response rating, Crabgrass, Large (crabgrass, large; [7])

O=C1NCC(c2ccc(F)c(F)c2)C1C(=O)Nc1cccc(F)c1F (racemic) [Compound 107]
20: Barnyardgrass plant response rating (barnyardgrass [1]; [8]) | Plant response rating, Velvetleaf (velvetleaf; [7]) | Plant response rating, Barnyardgrass (barnyardgrass [2]; 1000 g ai/ha, scale 0 to 100) | Plant response rating, Pigweed (pigweed; [10])
40: Plant response rating, Morningglory (morningglory; [7])
70: Plant response rating, Barnyardgrass (barnyardgrass [1]; [9]) | Plant response rating, Foxtail, Giant (giant foxtail; [7]) | Foxtail, Giant plant response rating (giant foxtail; [8]) | Plant response rating, Ducksalad (ducksalad; 1000 g ai/ha, scale 0 to 100) | Plant response rating, Crabgrass, Large (crabgrass, large; [7])
80: Plant response rating, Barnyardgrass (barnyardgrass [1]; [7]) | Plant response rating, Foxtail, Giant (giant foxtail; [10]) | Crabgrass, Large plant response rating (crabgrass, large; [8])
50: Plant response rating, Barnyardgrass (barnyardgrass [1]; [6])
30: Plant response rating, Ducksalad (ducksalad; 250 g ai/ha, scale 0 to 100) | Plant response rating, Pigweed (pigweed; [7])
90: Plant response rating, Crabgrass, Large (crabgrass, large; [10])
10: Plant response rating, Foxtail, Giant (giant foxtail; [6])
60: Plant response rating, Ducksalad (ducksalad; 500 g ai/ha, scale 0 to 100) | Plant response rating, Crabgrass, Large (crabgrass, large; [6])
0: Plant response rating, Sedge, Umbrella (sedge, umbrella; [12]) | Plant response rating, Sedge, Umbrella (sedge, umbrella; 250 g ai/ha, scale 0 to 100) | Plant response rating, Sedge, Umbrella (sedge, umbrella; 500 g ai/ha, scale 0 to 100) | Plant response rating, Sedge, Umbrella (sedge, umbrella; 1000 g ai/ha, scale 0 to 100) | Plant response rating, Ducksalad (ducksalad; [12]) | Plant response rating, Corn (corn; [6]) | Plant response rating, Corn (corn; [7]) | Corn plant response rating (corn; [8]) | Plant response rating, Corn (corn; [10]) | Plant response rating, Morningglory (morningglory; [6]) | Morningglory plant response rating (morningglory; [8]) | Plant response rating, Morningglory (morningglory; [10]) | Plant response rating, Velvetleaf (velvetleaf; [6]) | Velvetleaf plant response rating (velvetleaf; [8]) | Plant response rating, Velvetleaf (velvetleaf; [10]) | Plant response rating, Barnyardgrass (barnyardgrass [2]; [12]) | Plant response rating, Barnyardgrass (barnyardgrass [2]; 250 g ai/ha, scale 0 to 100) | Plant response rating, Barnyardgrass (barnyardgrass [2]; 500 g ai/ha, scale 0 to 100) | Plant response rating, Wheat (wheat; [6]) | Plant response rating, Wheat (wheat; [7]) | Wheat plant response rating (wheat; [8]) | Plant response rating, Wheat (wheat; [10]) | Plant response rating, Rice (rice; [12]) | Plant response rating, Rice (rice; 250 g ai/ha, scale 0 to 100) | Plant response rating, Rice (rice; 500 g ai/ha, scale 0 to 100) | Plant response rating, Rice (rice; 1000 g ai/ha, scale 0 to 100) | Plant response rating, Pigweed (pigweed; [6]) | Pigweed plant response rating (pigweed; [8])

From patent US10294202B2, “Pyrrolidinones as herbicides” (FMC Corporation, priority 2013, dated 2019)
